One block for each compound: values may come before it.
What was measured:
hPSC-ECs (GFP+ cells) = test: Electric cell-substrate impedance sensing (ECIS) of transendothelial barrier integrity; assay type: cell-based, human; details: for effect on EC barrier in co-application with VEGFA (functional barrier assays): under both conditions, FIG. 5
Procedure: Electric cell-substrate impedance sensing. TBI was detected in real time using the ECIS® Z-theta system (Applied Biophysics, McAlister G C, Nusinow D P, Jedrychowski M P, Wuhr M, Huttlin E L, Erickson B K, et al. Analytical chemistry. 2014; 86(14):7150-8.) using 96 well array plates (96widf, Applied Biophysics) at 250 Hz frequency. Plates were coated with 100 μL of fibronectin (25 μg/mL; for 30 min at RT), fibronectin was replaced by complete media and electrodes were stabilized for 1 h on the system. Afterwards, media was removed and hPSC-ECs were seeded (10,000 cells per well). Cells were left for 2 days to reach full confluency and then treated with compounds with or without VEGFA (50 ng/mL). All the treatments were performed in triplicates.

TGFBR2 [1] = molecular target: T1, TGFBR2 (Homo sapiens, UniProt P37173); test: Kinome scan (scanMAX, competitive protein kinase binding) TGFBR2; details: 1 μM; data not shown
T1 construct: purchased DiscoveRx
T1 sequence (P37173 23-567): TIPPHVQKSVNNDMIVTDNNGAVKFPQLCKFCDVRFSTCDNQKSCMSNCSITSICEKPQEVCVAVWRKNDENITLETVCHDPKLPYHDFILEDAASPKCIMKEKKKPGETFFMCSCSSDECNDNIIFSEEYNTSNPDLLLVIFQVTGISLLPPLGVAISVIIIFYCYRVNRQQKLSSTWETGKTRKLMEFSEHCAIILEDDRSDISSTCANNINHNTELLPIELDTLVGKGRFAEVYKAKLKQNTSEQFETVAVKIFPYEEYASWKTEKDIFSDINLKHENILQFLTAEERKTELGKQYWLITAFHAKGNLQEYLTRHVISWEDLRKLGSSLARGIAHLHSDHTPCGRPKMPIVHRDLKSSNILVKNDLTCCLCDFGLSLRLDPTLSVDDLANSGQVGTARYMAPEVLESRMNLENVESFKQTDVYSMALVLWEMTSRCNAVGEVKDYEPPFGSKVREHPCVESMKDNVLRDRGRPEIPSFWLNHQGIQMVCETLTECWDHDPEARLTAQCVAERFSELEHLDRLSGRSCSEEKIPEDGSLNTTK
Procedure: (§1) Competitive protein kinase binding assays. Kinome scan (468 kinases) was performed by scanMAX (DiscoveRx) at 1 μM. Kinome scan procedure has been followed as described in (Bemas M J, Cardoso F L, Daley S K, Weinand M E, Campos A R, Ferreira A J, et al. Nature protocols. 2010; 5(7):1265-72.). Kd determination for ACVR1B, TGFRB1, TGFBR2 and KDR has been done in duplicates with 11-point 3-fold serial dilution starting from 30 μM (DiscoveRx). All the compounds were dissolved in DMSO. Binding constants (Kds) were calculated with a standard dose-response curve using the Hill equation and the The Hill Slope was set to −1. Curves were fitted using a non-linear least square fit with the Levenberg-Marquardt algorithm.

BMPR1B = molecular target: T2, BMPR1B (Homo sapiens, UniProt O00238); test: Kinome scan (scanMAX, competitive protein kinase binding) BMPR1B; details: 1 μM; data not shown
T2 construct: purchased DiscoveRx
T2 sequence (O00238 14-502): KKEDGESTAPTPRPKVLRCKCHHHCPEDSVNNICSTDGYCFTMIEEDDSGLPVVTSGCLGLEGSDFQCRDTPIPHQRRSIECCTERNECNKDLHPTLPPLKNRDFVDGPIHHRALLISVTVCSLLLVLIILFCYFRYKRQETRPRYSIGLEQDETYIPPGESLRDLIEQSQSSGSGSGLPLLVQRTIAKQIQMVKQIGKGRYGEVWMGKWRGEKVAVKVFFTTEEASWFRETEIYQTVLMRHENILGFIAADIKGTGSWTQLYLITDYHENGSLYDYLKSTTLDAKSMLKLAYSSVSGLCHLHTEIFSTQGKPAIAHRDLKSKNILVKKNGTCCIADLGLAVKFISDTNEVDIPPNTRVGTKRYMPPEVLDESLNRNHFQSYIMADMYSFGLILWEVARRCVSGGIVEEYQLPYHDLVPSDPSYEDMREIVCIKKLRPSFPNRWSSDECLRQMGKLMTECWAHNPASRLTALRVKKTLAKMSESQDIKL
Procedure: as §1

TGFBR2 [2] = molecular target: T1, TGFBR2; test: Kd determination (DiscoveRx) TGFBR2; assay type: binding; details: data not shown
Procedure: as §1

hPSC-EC = tested on: hPSC-EC
Procedure: RNA isolation. RNA isolation from FACS sorted or cultured cells was performed using RNeasy micro kit or RNeasy mini kit (both Qiagen) or automated Maxwell Total RNA purification kit (Promega), all procedures included DNAse I digestion. Procedures were followed as described in the kit protocols.
RNA-sequencing and analysis. Total RNA from the FACS sorted or cell cultured treated samples was subjected to oligo (dT) capture and enrichment, and the resulting mRNA fraction was used to construct complementary DNA libraries. Transcriptome sequencing (RNA-seq) was performed on the Illumina HiSeq platform using the standard protocol (TruSeq Stranded Total RNA Library, Illumina) that generated approximately 30 million reads of 50 base-pair per sample. FACS sorted experiments for GFP+ and GFP− cells were performed using 6 replicates each from 2 different clones. The RNA-seq reads were then mapped to the human genome (NCBI build 37) by using GSNAP (Wu T D, Nacu S. Bioinformatics (Oxford, England). 2010; 26(7):873-81.). Comparison was done between 12 samples of GFP+ and GFP− samples from two clones. TGFBR2 inhibitor treated hPSC-EC samples were mapped to the human genome (hg19/Refseq) using STAR (Dobin A, Davis Calif., Schlesinger F, Drenkow J, Zaleski C, Jha S, et al. Bioinformatics (Oxford, England). 2013; 29(1):15-21.) and counting was performed using union mode of HtSeq (Anders S, Pyl P T, Huber W. Bioinformatics (Oxford, England). 2015; 31(2):166-9.). Differential expression was performed using Deseq2 (Dobin A, Davis C A, Schlesinger F, Drenkow J, Zaleski C, Jha S, et al. Bioinformatics (Oxford, England). 2013; 29(1):15-21.). Gene set enrichment analysis was performed using GSEA (Subramanian A, Tamayo P, Mootha V K, Mukherjee S, Ebert B L, Gillette M A, et al. Proceedings of the National Academy of Sciences of the United States of America. 2005; 102(43):15545-50.) using Hallmarks MsigDb database (Liberzon A, Birger C, Thorvaldsdottir H, Ghandi M, Mesirov J P, Tamayo P. Cell systems. 2015; 1(6):417-25.) using weighted p2 analysis, following default conditions with ignoring gene sets smaller than 15 and larger than 5000 genes.

[3] = tested on: CLDN5 transcriptional reporter (CLDN5-P2A-GFP) in hPSC-EC; test: CLDN5-GFP reporter, percentage of GFP+ cells by FACS; assay type: cell-based, human
Procedure: Fluorescence activated cell sorting and analysis. Human PSC-EC were dissociated from plates by Accutase (StemCell Technologies) and filtered before sorting with 30 μm filters (Miltenyi Biotec). Dissociated cells were kept in full media during sorting and sorted in cooled collection tubes with complete EC media supplemented with 20% FBS and 25 mM HEPES. Sorting was performed with BD FACS ARIA III (BD Biosciences) using 4-way purity precision mode. FACS plots were generated by Flowjo_V10 software. In case of RNA-seq minimum of 100,000 cells was sorted. After sorting, cells were spun down (610 g, 10 min) and lysed in 650 μL RLT lysis buffer (Qiagen)+β-mercaptoethanol (1%) and subsequently vortexed for 1 min at room temperature and snap frozen. In case of mass spectrometry analysis minimum of 10^6 cells was sorted, cells were washed with PBS^−(Life Technologies), spun down (110 g, 3 min), PBS was removed and cell pellets snap frozen.
Compound library screening with fluorescence activated cell readout. Compounds were plated in replicate plates, and each plate had DMSO treated controls. ECs (10,000 cells per well) were seeded on fibronectin coated plates in full media. Cells were treated 2 days after seeding and the FACS measurement using MACS quant analyzer 10 (Miltenyi biotec) was performed. Screen data was analyzed in Flowjo_V10 software.

[4] = RNA-seq 8 h and 48 h after treatment

inhibitory activity on TGFBR2, large kinase panel (TGFBR2 [1]): strong inhibitory activity
inhibition activity on BMPR1B, large kinase panel (BMPR1B): weaker inhibition activity
Kd (inhibitory activities) for TGFBR2 (TGFBR2 [2]): nanomolar inhibitory activities
expression of Wnt target genes (AXIN2, APCDD1, TNFRSF19) and receptors for Wnt FZD4 and LRP1 (hPSC-EC; [4]): upregulation
Structure (SMILES): Cc1cccc(-c2n[nH]cc2-c2ccc3ncccc3n2)n1 [Repsox, 2-[3-(6-Methyl-2-pyridinyl)-1H-pyrazol-4-yl]-1,5-naphthyridine]
rescue of TBI, impedance real time measurement (hPSC-ECs (GFP+ cells); 10 μM, co-treatment with 50 ng/mL VEGFA, GFP+ cells): rescues the loss-of TBI induced by VEGFA treatment
effect on EC barrier in co-application with VEGFA (functional barrier assays) (hPSC-ECs (GFP+ cells); VEGFA 50 ng/mL): strong EC barrier promoting effect
BMP signaling (ENG, LRG1 and BMPR2) (hPSC-EC; [4]): potently inhibited
CLDN5 expression (hPSC-EC; [4]): strong upregulation
GSK3ß expression (hPSC-EC; [4]): downregulation
PLVAP expression (hPSC-EC; [4]): downregulation
RHOB expression (hPSC-EC; [4]): Downregulation
SMAD6 (TGFß antagonist) expression (hPSC-EC; [4]): inducing
expression of KDR (VEGFR2) and PECAM1 (CD31) (hPSC-EC; [4]): did not change
expression of antagonists of BMP signaling (BMPER, GREM2 and GDF6) (hPSC-EC; [4]): Most striking upregulation
expression of inflammation genes (NFATC2, JAK1, JAK3 and ICAM1) (hPSC-EC; [4]): downregulate
expression of other tight junctions or regulators of tight junctions (MARVELD3, GJA4, GJA5, IFITM3) (hPSC-EC; [4]): Upregulation
TGFß pathway regulation (hPSC-EC; RNA-seq / GSEA Hallmarks MsigDB): most potent compound
expression of SOX17 and KLF4 (hPSC-EC; RNA-seq after treatment): Induction
VEGFR1 (FLT1) expression (hPSC-EC; RNA-seq, data not shown): upregulated
expression of angiogenesis related genes (ESM1, ANGPTL4 and PPARGC1A) (hPSC-EC; RNA-seq, data not shown): most potent compound in downregulating

Structure (SMILES): CCN(CC)CCNC(=O)c1c(C)[nH]c(/C=C2\C(=O)Nc3ccc(F)cc32)c1C [SU11248]
% of GFP+ cells ([3]; 5 μM SU11248 for 2 days, FACS): 99%
change in GFP+ (reporter gene positive) cells upon treatment ([3]; FACS 2 days after treatment, VEGFA 50 ng/mL): increase of reporter gene positive cells
resistance to barrier breakdown by VEGFA, ECIS (hPSC-ECs (GFP+ cells); cells treated with 5 μM SU11248, VEGFA 50 ng/mL): resistant to barrier breakdown by VEGFA

Structure (SMILES): NC(=O)c1ccc(-c2nc(-c3ccc4c(c3)OCO4)c(-c3ccccn3)[nH]2)cc1 [SB431542, 4-(4-Benzo[1,3]dioxol-5-yl-5-pyridin-2-yl-1H-imidazol-2-yl)-benzamide]
effect on EC barrier in co-application with VEGFA (functional barrier assays) (hPSC-ECs (GFP+ cells); VEGFA 50 ng/mL): no effect

Structure (SMILES): Cc1cccc(-c2[nH]c(C(C)(C)C)nc2-c2ccc3c(c2)OCO3)n1 [SB505124]
effect on EC barrier in co-application with VEGFA (functional barrier assays) (hPSC-ECs (GFP+ cells); VEGFA 50 ng/mL): partial effect

inhibitory activity on TGFBR2, large kinase panel (TGFBR2 [1]): strong inhibitory activity
inhibition activity on BMPR1B, large kinase panel (BMPR1B): weaker inhibition activity
Kd (inhibitory activities) for TGFBR2 (TGFBR2 [2]): nanomolar inhibitory activities
Structure (SMILES): O=C(NC1CCOCC1)c1ccc(-c2cc(-c3c[nH]nc3-c3ccccn3)ccn2)cc1 [GW788388, 4-[4-[3-(2-Pyridinyl)-1H-pyrazol-4-yl]-2-pyridinyl]-N-(tetrahydro-2H-pyran-4-yl)-benzamide]
effect on EC barrier in co-application with VEGFA (functional barrier assays) (hPSC-ECs (GFP+ cells); VEGFA 50 ng/mL): prevented barrier disruption with VEGFA
